Measurements: publication PMC3105069, “Nicotinic Acid Receptor Abnormalities in Human Skin Cancer: Implications for a Role in Epidermal Differentiation” (PLoS ONE, 2011)

Target: T1, GPR109B (Homo sapiens, UniProt P49019)
T1 construct: gene HCAR3
T1 sequence (P49019 whole entry): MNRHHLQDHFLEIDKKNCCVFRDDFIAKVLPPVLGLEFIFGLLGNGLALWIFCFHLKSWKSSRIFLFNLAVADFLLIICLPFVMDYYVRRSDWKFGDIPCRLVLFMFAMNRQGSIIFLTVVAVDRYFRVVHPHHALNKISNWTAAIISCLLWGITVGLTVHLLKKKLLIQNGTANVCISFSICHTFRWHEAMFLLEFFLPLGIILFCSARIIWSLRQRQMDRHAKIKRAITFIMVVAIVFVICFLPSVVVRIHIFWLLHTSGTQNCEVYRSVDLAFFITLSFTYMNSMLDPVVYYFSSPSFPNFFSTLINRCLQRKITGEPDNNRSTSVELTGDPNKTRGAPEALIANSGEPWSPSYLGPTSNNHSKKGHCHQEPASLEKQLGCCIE

Q: With `O=C(O)c1cccnc1` [nicotinic acid] as the compound, how does the EC50 read?
A: Its EC50 is 25 µM.
